In US20080261895A1 (Wyeth, priority 2006, published 2008):

Tests used:
[1] = test system: Reserpine-Induce Hypothermia; conditions: cited from earlier work
[2] = Metabolites of DVS observed by LC/MS in rat plasma, urine and feces; format: in vivo, Sprague Dawley rats; conditions: P: plasma, U: urine, F: feces
Experimental: An Agilent Model 1100 HPLC system (Agilent Technologies, Wilmington, Del.) including an autosampler and diode array UV detector was used for LC/MS analysis. The UV detector was set to monitor 200 to 400 nm. Separations were accomplished on a 5 micron Phenomenex Luna C18(2) column, 150×2 mm (Phenomenex). The column temperature was 25° C. The mobile phases and gradient program were as follows.
The mass spectrometer used for metabolite characterization was a Micromass Q-TOF-2 quadrupole time-of-flight hybrid mass spectrometer (Micromass, Inc., Beverly, Mass.). The mass spectrometer was equipped with an electrospray ionization (ESI) interface and operated in the positive ionization mode.

[3] = Metabolites of DVS observed by LC/MS in dog plasma, urine and feces; format: in vivo, beagle dogs; conditions: P: plasma, U: urine, F: feces
Experimental: An Agilent Model 1100 HPLC system (Agilent Technologies, Wilmington, Del.) including an autosampler and diode array UV detector was used for LC/MS analysis. The UV detector was set to monitor 200 to 400 nm. Separations were accomplished on a 5 micron Phenomenex Luna C18(2) column, 150×2 mm (Phenomenex). The column temperature was 25° C. For selected LC/MS analyses, radiochromatograms were acquired using a β-RAM model 3 radioactivity flow detector (IN/US Systems Inc., Tampa, Fla.) equipped with a solid scintillation flow cell.
The mass spectrometers used for metabolite characterization were a Micromass Q-TOF-2 quadrupole time-of-flight hybrid mass spectrometer (Micromass, Inc., Beverly, Mass.) and a Finnigan LCQ Deca ion trap mass spectrometer (ThermoFinnigan, San Jose, Calif.). The mass spectrometer was equipped with an electrospray ionization (ESI) interface and operated in the positive ionization mode.

[4] = target: Histamine Hi (Homo sapiens, UniProt P35367); conditions: cited from earlier work
[5] = test system: Opiate; conditions: cited from earlier work
[6] = target: D2 (Homo sapiens, UniProt P14416); conditions: cited from earlier work
[7] = test system: s Cholinergic; conditions: cited from earlier work
[8] = test system: Adrenergic a; conditions: cited from earlier work
[9] = test system: dog liver microsomes; assay: Glucuronidation in dog liver microsomes; format: in vitro ADME; conditions: dog liver microsomes 1 mg/mL, 100 μM, 30 minutes
Experimental: To confirm the site of glucuronidation of DVS, incubations were performed using dog liver microsomes. These incubations compared the glucuronidation of DVS to venlafaxine. […] Reactions were initiated by the addition of UDPGA (final concentration 1 mM). An additional set of incubations was performed for venlafaxine with UDPGA and an NADPH generating system. […] Reactions were stopped by the addition of 500 μL of acetonitrile and processed as described above. Samples were analyzed by LC/MS.

[10] = test system: histaminergic receptors; conditions: in vitro; cited from earlier work
[11] = test system: monoamine oxidase; conditions: cited from earlier work
[12] = test system: adrenergic receptors; conditions: in vitro; cited from earlier work

D2, sequence (P14416 whole entry): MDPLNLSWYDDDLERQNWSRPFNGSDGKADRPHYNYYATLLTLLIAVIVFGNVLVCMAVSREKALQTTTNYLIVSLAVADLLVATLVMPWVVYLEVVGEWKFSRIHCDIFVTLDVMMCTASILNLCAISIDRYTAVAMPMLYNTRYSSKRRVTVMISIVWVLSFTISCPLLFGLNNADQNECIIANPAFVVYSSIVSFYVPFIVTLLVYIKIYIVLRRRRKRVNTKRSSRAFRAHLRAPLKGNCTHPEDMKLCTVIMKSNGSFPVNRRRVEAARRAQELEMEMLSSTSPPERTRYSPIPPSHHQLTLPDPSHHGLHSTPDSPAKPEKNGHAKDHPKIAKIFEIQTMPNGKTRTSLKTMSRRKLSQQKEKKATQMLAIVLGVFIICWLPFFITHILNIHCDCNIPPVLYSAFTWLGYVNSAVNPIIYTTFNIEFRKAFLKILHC
Histamine Hi, sequence (P35367 whole entry): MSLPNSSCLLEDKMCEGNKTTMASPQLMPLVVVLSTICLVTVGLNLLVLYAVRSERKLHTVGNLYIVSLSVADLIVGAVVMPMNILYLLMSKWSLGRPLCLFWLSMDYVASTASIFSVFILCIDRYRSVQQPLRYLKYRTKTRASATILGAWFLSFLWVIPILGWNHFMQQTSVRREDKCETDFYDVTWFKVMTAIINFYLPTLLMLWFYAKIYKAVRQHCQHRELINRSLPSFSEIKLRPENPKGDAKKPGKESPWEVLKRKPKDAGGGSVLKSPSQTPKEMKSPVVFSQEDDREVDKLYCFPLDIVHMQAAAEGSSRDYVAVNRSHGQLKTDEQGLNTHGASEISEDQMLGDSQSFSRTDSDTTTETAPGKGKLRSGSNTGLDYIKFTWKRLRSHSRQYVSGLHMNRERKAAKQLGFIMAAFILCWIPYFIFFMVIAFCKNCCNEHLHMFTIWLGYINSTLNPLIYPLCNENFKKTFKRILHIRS

| Compound | Reversal of Reserpine-Induce Hypothermia (minimum effect; mg&g i.p.) [1] | Matrix (metabolite observed by LC/MS) [2] | Matrix (metabolite observed by LC/MS) [3] | Affinity for Various Neuroreceptors (% inhibition at 1 uM): Histamine Hi [4] | Affinity for Various Neuroreceptors (% inhibition at 1 uM): Opiate [5] | Affinity for Various Neuroreceptors (% inhibition at 1 uM): D2 [6] | Affinity for Various Neuroreceptors (% inhibition at 1 uM): s Cholinergic [7] | Affinity for Various Neuroreceptors (% inhibition at 1 uM): Adrenergic a [8] | glucuronidation ([9]; in the presence of both UDPGA and NADPH) | glucuronidation ([9]; in the presence of only UDPGA) | affinity for histaminergic receptors [10] | inhibitory activity on monoamine oxidase [11] | affinity for adrenergic receptors [12] |
| --- | --- | --- | --- | --- | --- | --- | --- | --- | --- | --- | --- | --- | --- |
| CN(C)CC(c1ccc(O)cc1)C1(O)CCCCC1 (stereo not shown) [O-DESMETHYLVENLAFAXINE, 1-[2-(dimethylamino)-1-(4-phenol)ethyl]-cyclohexanol] | 3 mg&g | P, U, F | P, U, F | 0% | 7% | 6% | 7% | 0% | – | – | – | – | – |
| COc1ccc(C(CN(C)C)C2(O)CCCCC2)cc1 (stereo not shown) [venlafaxine, 1-[2-(dimethylamino)-1-(4-methoxyphenyl)ethyl]cyclohexanol] | – | – | – | – | – | – | – | – | observed | not | virtually no affinity | no inhibitory activity | virtually no affinity |
